From ChEMBL document CHEMBL1130702, “Novel cytotoxic diterpenes from the stem of Dysoxylum kuskusense” (Bioorg Med Chem Lett, 1998)

Key:
Format in all cases: functional, cell-based
Conditions in all cases: Homo sapiens
HL-60 [1] = experiment: Compound was tested for cytotoxicity against HL-60(TB) leukemia tumor cell line
K562 = experiment: Compound was tested for cytotoxicity against K-562 (leukemia) cell line
HL-60 [2] = experiment: Compound was tested for cytotoxicity against HL-60 (TB) cell line
NCI-H522 = experiment: Compound was tested for cytotoxicity against NCI-H522 (lung tumor)cell line

SMILES	EC50 (HL-60 [1])	EC50 (K562)	EC50 (HL-60 [2])	EC50 (NCI-H522)
CC1=CC(=O)C[C@@]2(C)CC[C@@H](C(C)CC(=O)CC(C)C)C[C@@]12OO (stereo not given in full)	2.37 µM			
CC1=CC(=O)C[C@]2(C)CC[C@@H](C(C)CC(=O)CC(C)C)C[C@@]12OO (stereo not given in full)	6.35 µM			
CC1=CC(=O)C[C@]2(C)CC[C@@H](C(C)CC(=O)CC(C)C)C[C@@H]12 (stereo not given in full)		5.04 µM	2250 nM	4.8 µM
